Results reported in patent US20070128669A1, “Serum-free expansion of cells in culture” (Institute for Chemical Genomics, priority 2005, published 2007).

Legend:
[1] = tested on: zebrafish embryos; assay: Zebrafish embryo development (convergent extension); type: in vivo, zebrafish (danio rerio); conditions: 1 μM, 1-cell stage embryos, 24 h
Description: Zebrafish experiments. Wild-type (AB) zebrafish strain at 1-cell stage were treated with IQ-1 at a final concentration of 1 μM in embryo medium for 24 h. Control zebrafish embryos were incubated at an equivalent concentration of DMSO. At the end of this 24 h treatment, embryos were manually dechorionated and imaged. Zebrafish embryos were maintained at 28° C. Results shown are representative of those obtained from at least 10 embryos for each group, from 2 independent experiments.

[2] = tested on: P19 cells; assay: Real-time RT-PCR of stem cell maintenance genes in P19 cells; type: cell-based; conditions: Wnt3a and IQ-1 vs Wnt3a+DMSO, from the control gene β-actin
Description: Real-time RT-PCR. Total RNA was isolated and reverse-transcribed using SuperScript III (Invitrogen). Real-time RT-PCR (Sybr Green; BioRad) was performed using with the gene-specific primers: […]
In certain experiments, 2 μg of extracted total RNA was reverse-transcribed using SuperScript III RT-PCR system (Invitrogen) according to the manufacturer's protocol. 1 μl of cDNA was amplified by PCR with one or more of the gene-specific primers of SEQ ID NOs:5-18 using optimized PCR cycles to obtain amplified reactions in the linear range.
In Table 1, above, the effects of IQ-1 treatment on genes associates with stem cell maintenance are shown, as measured by RT-PCR. The values are represented as ΔΔCT from the control gene β-actin.

[3] = tested on: p300 Ser89 phosphorylation; assay: Immunoblot of p300 and phospho-serine89-p300 in P19 cells; type: cell-based; conditions: Wnt3a stimulated P19 cells, 10 μM, 24 hours
Description: Detection of CBP, p300, and phospho-serine89-p300 in P19 cells. P19 cells exposed to either Wnt3A or vehicle control, after which IQ-1 was added to a final concentration of 10 μM. Control DMSO was 0.025%. Cells were incubated for 24 hours. At the end of this incubation period, cells were washed, lysed and subjected to SDS-PAGE. CBP and p300 were detected using the rabbit polyclonal antibody (A-22)(1:5000); and (C-20)(1:5000) (Santa Cruz), respectively. Phospho-serine89-p300 was detected using custom antisera at a dilution of 1:100.

[4] = tested on: p300/β-catenin complex; assay: Co-immunoprecipitation of β-catenin with p300 in P19 cells; type: cell-based; conditions: Wnt3a, 10 μM, 24 hours
Description: Co-immunoprecipitation of β-catenin with CBP or p300 in P19 cells. Co-immunoprecipitation was performed as described in (27). Briefly, P19 cells were treated with 10 μM ICG-001 or 10 μM IQ-1 (control DMSO was 0.025%) for 24 hours, after which they were washed and lysed […]. Nuclear fraction was isolated and precleared with antibodies to CBP(A-22) or p300(N-15). β-catenin was detected using a mouse monoclonal antibody (Becton Dickinson) at a dilution of 1:5000.

[5] = tested on: Mouse D3 ESCs; assay: Long term expansion of ESCs without MEF feeders or LIF; type: cell-based
Description: FIG. 1. […] FIG. 1A, Structure of IQ-1. FIG. 1B, IQ-1 dose dependently maintains alkaline phosphatase activity. FIG. 1C, IQ-1, dose dependently, maintains SSEA-1 expression. SSEA-1 expression was analyzed 7 days after addition of IQ-1. FIG. 1D, IQ-1 enabled ESCs to proliferate in the undifferentiated state for at least 65 days, without MEF feeders or LIF. ESCs, in media supplemented with 4 μg/ml IQ-1, were passaged 2-3 times every week at 1×10^5-1×10^6 cells per 6 cm dish and counted. All error bars represent mean±SD.
Cell culture. ESCs, D3ES (ATCC CRL-1934) were maintained on Mitomycin C treated MEFs in mouse ESC medium containing DMEM (Invitrogen) supplemented with 15% FBS (Invitrogen), 0.1 mM MEM nonessential amino acids (Invitrogen), 0.1 mM 2-mercaptoethanol (Sigma), 2 mM L-glutamine (Invitrogen) and 1,000 U/ml LIF (CHEMICON). To remove MEFs, cells were collected by trypsinization and plated on gelatin-coated culture dishes for 20 min. Non-adherent cells consisting mainly of ESCs were replated on gelatin-coated culture dishes again. Non-adherent cells were used for further experiments. P19 cells were cultured according to conditions recommended by the ATCC. Cells were incubated at 37° C. in a 5% CO2 incubator. Purified Wnt3a was purchased (R&D Systems).
IQ-1 allowed for long term expansion of ESCs in culture without MEFs and without the addition of exogenous LIF. […]

[6] = tested on: Murine ESCs (D3 ES); assay: SSEA-1 expression of ESCs by flow cytometry; type: cell-based, mouse; conditions: 7 days after addition of IQ-1
Description: Flow Cytometry. Analysis of SSEA-1 expression of ESCs was performed by flow cytometry according to Zandstra et al. (35). The test cell population was washed in ice cold Hanks balanced salt solution (Invitrogen) containing 2% FCS(HF) and resuspended for 10 min in HF containing anti-mouse CD16/CD32 monoclonal antibody at 1 μg/100 μl (Pharmingen) to block nonspecific binding. Blocked cells were then incubated at 1×10^7 cells/ml for 40 min on ice with anti-SSEA-1 (Kyowa Medex) followed by FITC-Goat anti Mouse IgM antibody (ZYMED). Cells to be analyzed for their SSEA-1 expression were then washed twice in HF with 2 μg/ml propidium iodide (Dojindo) added into the final wash. The cells were then resuspended in HF for analysis on a FACS Calibur (Becton Dickinson).

CC(=O)c1ccc(NN=C(C(N)=O)C2=NC(C)(C)Cc3ccccc32)cc1 [IQ-1]
zebrafish embryo development [1]: significant developmental defects
ΔΔCT MDR-1 [2]: 1.69
ΔΔCT Oct4 [2]: 0.39
ΔΔCT Sox-2 [2]: 4.31
ΔΔCT c-myc [2]: −2.01
phosphorylation level of p300 Ser89 [3]: dramatic decrease
total amount of p300 [3]: not affected
p300/β-catenin interaction [4]: at the expense of the p300/β-catenin complex
time ESCs proliferate in the undifferentiated state ([5]; 4 μg/ml IQ-1, without MEF feeders or LIF): at least 65 days
ESC proliferation rate ([5]; 15% FCS plus 4 μg/ml IQ-1, 65 days, without MEFs or LIF): ~2 log increase every ten days
SSEA-1 expression [6]: enhanced expression
